Results on 20 molecules are retold here after patent US10045983B2, “Heteroaryl pyridone and aza-pyrodine compounds” (Genentech, Inc., priority 2011, dated 2018).

The structures appear in SMILES notation.

The test in a line: CD69 Whole Blood Assay (CD69 Hu Blood FACS). The class given is cell-based, human. To be noted: Lymphocyte; human whole blood, anti-IgM activated B lymphocytes, FACS; IC70; Table 1; read-out: CD69 Hu Blood FACS IC70. The source says:
A CD69 Whole Blood Assay can be conducted on Formula I compounds to determine the ability of compounds to inhibit the production of CD69 by B lymphocytes in human whole blood activated by crosslinking surface IgM with goat F(ab′)2 anti-human IgM (Example 907). CD69 is a type II C-type lectin involved in lymphocyte migration and cytokine secretion. CD69 expression represents one of the earliest available indicators of leukocyte activation and its rapid induction occurs through transcriptional activation (Vazquez et al (2009) Jour. of Immunology Published Oct. 19, 2009, doi:10.4049/jimmunol.0900839). Concentration-dependent inhibition of antigen receptor stimulation by selective Btk inhibitors induces cell surface expression of the lymphocyte activation marker CD69 (Honigberg et al (2010) Proc. Natl. Acad. Sci. 107(29):13075-13080). Thus, CD69 inhibition by selective Btk inhibitors may be correlated with therapeutic efficacy of certain B-cell disorders.
The IC70 is the concentration needed for an effect of 70%. `CN1CCN(C)[C@H](c2ccc(Nc3nc(-c4ccnc(N5CCn6c(cc7c6CCCC7)C5=O)c4CO)cn(C)c3=O)cc2)C1=O` [Example 114, (R)-2-(4-(6-(4-(1,4-dimethyl-3-oxopiperazin-2-yl)phenylamino)-4-methyl-5-oxo-4,5-dihydropyrazin-2-yl)-3-(hydroxymethyl)pyridin-2-yl)-3,4,6,7,8,9-hexahydropyrazino[1,2-a]indol-1(2H)-one]: the IC70 was determined as 0.0802 µM.
Consider `Cc1cc(Nc2cc(-c3ccnc(N4CCn5c(cc6c5CCCC6)C4=O)c3CO)cn(C)c2=O)n[nH]1` [Example 115, 2-(3-(Hydroxymethyl)-4-(1-methyl-5-(5-methyl-1H-pyrazol-3-ylamino)-6-oxo-1,6-dihydropyridin-3-yl)pyridin-2-yl)-3,4,6,7,8,9-hexahydropyrazino[1,2-a]indol-1(2H)-one], for which the IC70 amounted to 0.286 µM.
The same measure for `Cn1cc(-c2cncc(-n3ncc4c5c(sc4c3=O)CCCC5)c2CO)cc(Nc2ccc(N3CCN(C4COC4)CC3)cn2)c1=O` [Example 116, 4-Hydroxymethyl-3-[1-methyl-5-({5-[4-(oxetan-3-yl)piperazin-1-yl]pyridine-2-yl}amino)-6-oxo-1,6-dihydropyridin-3-yl]-5-{6-oxo-8-thia-4,5-diazatricyclo[7.4.0.0^2,7]trideca-1(9),2(7),3-trien-5-yl}pyridine]: 0.377 µM; for `Cn1cc(-c2ccnc(N3CCn4c(cc5c4CCCC5)C3=O)c2CO)cc(Nc2ccc(S(C)(=O)=O)cn2)c1=O` [Example 117, 2-(3-(hydroxymethyl)-4-(1-methyl-5-(5-(methylsulfonyl)pyridin-2-ylamino)-6-oxo-1,6-dihydropyridin-3-yl)pyridin-2-yl)-3,4,6,7,8,9-hexahydro-pyrazino[1,2-a]indol-1(2H)-one]: 0.396 µM.
The same measure for `Cn1cc(-c2ccnc(N3CCn4c(cc5c4CCCC5)C3=O)c2CO)cc(Nc2cc(C3CC3)[nH]n2)c1=O` [Example 118, 2-(4-(5-(5-Cyclopropyl-1H-pyrazol-3-ylamino)-1-methyl-6-oxo-1,6-dihydropyridin-3-yl)-3-(hydroxymethyl)pyridin-2-yl)-3,4,6,7,8,9-hexahydropyrazino[1,2-a]indol-1(2H)-one]: 0.608 µM; for `C[C@H]1CN(C2COC2)CCN1c1ccc(Nc2cc(-c3ccnc(N4CCn5c(cc6c5CCCC6)C4=O)c3CO)cn(C)c2=O)nc1` [Example 119, (S)-2-(3-(Hydroxymethyl)-4-(1-methyl-5-(5-(2-methyl-4-(oxetan-3-yl)piperazin-1-yl)pyridin-2-ylamino)-6-oxo-1,6-dihydropyridin-3-yl)pyridin-2-yl)-3,4,6,7,8,9-hexahydropyrazino[1,2-a]indol-1(2H)-one]: 0.0356 µM.
With `Cn1cc(-c2ccnc(N3CCn4c(cc5c4CCCC5)C3=O)c2CO)cc(Nc2ccc(N3CCN(CC(C)(C)O)CC3)cn2)c1=O` [Example 120, 2-(4-(5-(5-(4-(2-Hydroxy-2-methylpropyl)piperazin-1-yl)pyridin-2-ylamino)-1-methyl-6-oxo-1,6-dihydropyridin-3-yl)-3-(hydroxymethyl)pyridin-2-yl)-3,4,6,7,8,9-hexahydropyrazino[1,2-a]indol-1(2H)-one], the IC70 came to 0.283 µM.
The same measure for `Cn1cc(-c2ccnc(-n3ccn4c5c(cc4c3=O)CCCC5)c2CO)cc(Nc2ccc(N3CCN(C4COC4)CC3)cn2)c1=O` [Example 121, 2-(3-(hydroxymethyl)-4-(1-methyl-5-(5-(4-(oxetan-3-yl)piperazin-1-yl)pyridine-2-ylamino)-6-oxo-1,6-dihydropyridin-3-yl)pyridin-2-yl)-6,7,8,9-tetrahydropyrazino[1,2-a]indol-1(2H)-one]: 0.0323 µM; for `C[C@@H]1CN(c2ccc(Nc3cc(-c4ccnc(N5CCn6c(cc7c6CCCC7)C5=O)c4CO)cn(C)c3=O)nc2)[C@@H](C)CN1C1COC1` [Example 122, 2-(4-(5-(5-((2S,5R)-2,5-Dimethyl-4-(oxetan-3-yl)piperazin-1-yl)pyridin-2-ylamino)-1-methyl-6-oxo-1,6-dihydropyridin-3-yl)-3-(hydroxymethyl)pyridin-2-yl)-3,4,6,7,8,9-hexahydropyrazino[1,2-a]indol-1(2H)-one]: 0.0127 µM.
With `Cn1cc(-c2ccnc(N3CCn4c(cc5c4CCCC5)C3=O)c2CO)cc(Nc2ccc(N3CCN(CCO)CC3)cn2)c1=O` [Example 123, 2-(4-(5-(5-(4-(2-Hydroxyethyl)piperazin-1-yl)pyridin-2-ylamino)-1-methyl-6-oxo-1,6-dihydropyridin-3-yl)-3-(hydroxymethyl)pyridin-2-yl)-3,4,6,7,8,9-hexahydro-pyrazino[1,2-a]indol-1(2H)-one], the IC70 worked out at 0.0331 µM.
The same measure for `Cn1cc(-c2ccnc(-n3ncc4c5c(sc4c3=O)CCCC5)c2CO)cc(Nc2ccc(N3CCN(C4COC4)CC3)cn2)c1=O` [Example 124, 3-Hydroxymethyl-4-[1-methyl-5-(5-(4-(oxetan-3-yl)piperazin-1-yl)pyridine-2-ylamino)-6-oxo-1,6-dihydropyridin-3-yl]-2-{6-oxo-8-thia-4,5-diazatricyclo[7.4.0.0^2,7]trideca-1(9),2(7),3-trien-5-yl}pyridine]: 0.0362 µM; for `Cn1cc(-c2ccnc(N3CCn4c(cc5c4CCCC5)C3=O)c2CO)cc(Nc2cc3n(n2)CCN(C2COC2)C3)c1=O` [Example 125, 2-(3-(Hydroxymethyl)-4-(1-methyl-5-(5-(oxetan-3-yl)-4,5,6,7-tetrahydropyrazolo[1,5-a]pyrazin-2-ylamino)-6-oxo-1,6-dihydropyridin-3-yl)pyridin-2-yl)-3,4,6,7,8,9-hexahydropyrazino[1,2-a]indol-1(2H)-one]: 0.0873 µM; for `Cn1cc(-c2cncc(-n3ccn4c5c(cc4c3=O)CCCC5)c2CO)cc(Nc2ccc(N3CCN(C4COC4)CC3)cn2)c1=O` [Example 126, 2-(4-(Hydroxymethyl)-5-(1-methyl-5-(5-(4-(oxetan-3-yl)piperazin-1-yl)pyridin-2-ylamino)-6-oxo-1,6-dihydropyridin-3-yl)pyridin-3-yl)-6,7,8,9-tetrahydropyrazino[1,2-a]indol-1(2H)-one]: 0.138 µM.
The same measure for `Cn1cc(-c2ccnc(N3CCn4c(cc5c4CCCC5)C3=O)c2CO)cc(Nc2ccc(N3CCNCC3)cn2)c1=O` [Example 127, 2-(3-(Hydroxymethyl)-4-(1-methyl-6-oxo-5-(5-(piperazin-1-yl)pyridin-2-ylamino)-1,6-dihydropyridin-3-yl)pyridin-2-yl)-3,4,6,7,8,9-hexahydropyrazino[1,2-a]indol-1(2H)-one]: 0.141 µM; for `Cn1cc(-c2ccnc(N3CCn4c(cc5c4CCCC5)C3=O)c2CO)cc(Nc2cc3n(n2)CCN(C2CC2)C3)c1=O` [Example 128, 2-(4-(5-(5-Cyclopropyl-4,5,6,7-tetrahydropyrazolo[1,5-a]pyrazin-2-ylamino)-1-methyl-6-oxo-1,6-dihydropyridin-3-yl)-3-(hydroxymethyl)pyridin-2-yl)-3,4,6,7,8,9-hexahydropyrazino[1,2-a]indol-1(2H)-one]: 0.0918 µM.
`Cn1cc(-c2ccnc(N3CCn4c(cc5c4CCCC5)C3=O)c2CO)cc(Nc2cc3n(n2)CCOC3)c1=O` [Example 129, 2-(4-(5-(6,7-Dihydro-4H-pyrazolo[5,1-c][1,4]oxazin-2-ylamino)-1-methyl-6-oxo-1,6-dihydropyridin-3-yl)-3-(hydroxymethyl)pyridin-2-yl)-3,4,6,7,8,9-hexahydropyrazino[1,2-a]indol-1(2H)-one]: the 70% effect concentration (IC70) amounted to 0.0917 µM.
The same measure for `C[C@H]1CN(C2COC2)CCN1c1ccc(Nc2cc(-c3ccnc(N4CCn5c(cc6c5CC(C)(C)C6)C4=O)c3CO)cn(C)c2=O)nc1` [Example 130, (3 S)-10-[4-[1-methyl-5-({5-[2-methyl 4-(oxetan-3-yl)piperazin-1-yl]pyridine-2-yl}amino)-6-oxo-1,6-dihydropyridin-3-yl]-3-(hydroxymethyl)pyridin-2-yl]-4,4-dimethyl-1,10-diazatricyclo[6.4.0.0^2,6]dodeca-2(6),7-dien-9-one]: 0.012 µM; for `CC[C@H]1CN(C2COC2)CCN1c1ccc(Nc2cc(-c3ccnc(N4CCn5c(cc6c5CCCC6)C4=O)c3CO)cn(C)c2=O)nc1` [Example 131, (S)-2-(4-(5-(5-(2-ethyl-4-(oxetan-3-yl)piperazin-1-yl)pyridin-2-ylamino)-1-methyl-6-oxo-1,6-dihydropyridin-3-yl)-3-(hydroxymethyl)pyridin-2-yl)-3,4,6,7,8,9-hexahydropyrazino[1,2-a]indol-1(2H)-one]: 0.0155 µM; for `Cn1nc(-c2ccnc(N3CCn4c(cc5c4CCCC5)C3=O)c2CO)cc(Nc2cc3n(n2)CCOC3)c1=O` [Example 132, 2-(4-(5-(6,7-Dihydro-4H-pyrazolo[5,1-c][1,4]oxazin-2-ylamino)-1-methyl-6-oxo-1,6-dihydropyridazin-3-yl)-3-(hydroxymethyl)pyridin-2-yl)-3,4,6,7,8,9-hexahydropyrazino[1,2-a]indol-1(2H)-one]: 0.263 µM.
The same measure for `CN1CCn2nc(Nc3cc(-c4ccnc(N5CCn6c(cc7c6CCCC7)C5=O)c4CO)nn(C)c3=O)cc2C1` [Example 133, 2-(3-(Hydroxymethyl)-4-(1-methyl-5-(5-methyl-4,5,6,7-tetrahydropyrazolo[1,5-a]pyrazin-2-ylamino)-6-oxo-1,6-dihydropyridazin-3-yl)pyridin-2-yl)-3,4,6,7,8,9-hexahydropyrazino[1,2-a]indol-1(2H)-one]: 0.227 µM.
